Measured values as given in patent US7494714B2, “Surfaces that resist the adsorption of biological species” (President & Fellows of Harvard College, priority 2000, dated 2009).
Like-named read-outs stand apart in the source and are kept apart here. Where a SMILES comes first, the peptide text is derived from it. [ ]: non-standard residue; d: D form. Sar = CNCC(=O)O

How the values were obtained:
lysozyme = lysozyme (Gallus gallus, UniProt P00698); experiment: SPR adsorption of lysozyme to SAMs / grafted polymer films; format: binding; conditions: for % ML 3 min / dR/dt on: lysozyme; for % ML 3 min / dR/dt on / % Lys off: single-component SAMs (a) and mixed SAMs (b)
[1] = Contact angle of deionized water under cyclooctane; format: physicochemical
fibrinogen = molecular target: T1, fibrinogen (Bos taurus, UniProt P02672+P02676+P12799); experiment: SPR adsorption of fibrinogen to SAMs / grafted polymer films; format: binding, bovine; conditions: for % ML 30 min / dR/dt on / % ML 3 min: fibrinogen; for % ML 30 min / dR/dt on / % Fib off: single-component SAMs (a) and mixed SAMs (b); for % ML 3 min: single-component SAMs (a, RSH) and mixed SAMs (b, RNH2)
T1 sequence (P02672 20-615): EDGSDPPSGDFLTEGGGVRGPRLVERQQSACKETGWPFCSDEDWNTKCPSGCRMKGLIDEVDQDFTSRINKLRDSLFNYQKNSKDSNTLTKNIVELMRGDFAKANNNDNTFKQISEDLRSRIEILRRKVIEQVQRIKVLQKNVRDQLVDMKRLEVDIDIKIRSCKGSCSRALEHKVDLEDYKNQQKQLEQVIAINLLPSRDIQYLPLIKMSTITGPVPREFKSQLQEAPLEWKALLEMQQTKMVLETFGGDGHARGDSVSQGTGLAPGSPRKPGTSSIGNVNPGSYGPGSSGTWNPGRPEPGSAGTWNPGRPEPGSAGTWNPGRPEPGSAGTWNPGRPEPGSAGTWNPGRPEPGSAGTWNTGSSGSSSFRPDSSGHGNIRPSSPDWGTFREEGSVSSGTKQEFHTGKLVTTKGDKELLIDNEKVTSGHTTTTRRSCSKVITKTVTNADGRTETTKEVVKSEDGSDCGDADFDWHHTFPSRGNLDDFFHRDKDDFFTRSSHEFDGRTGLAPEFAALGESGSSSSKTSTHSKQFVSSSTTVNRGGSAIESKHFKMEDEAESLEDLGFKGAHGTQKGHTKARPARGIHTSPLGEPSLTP
T1 sequence (P02676 1-468): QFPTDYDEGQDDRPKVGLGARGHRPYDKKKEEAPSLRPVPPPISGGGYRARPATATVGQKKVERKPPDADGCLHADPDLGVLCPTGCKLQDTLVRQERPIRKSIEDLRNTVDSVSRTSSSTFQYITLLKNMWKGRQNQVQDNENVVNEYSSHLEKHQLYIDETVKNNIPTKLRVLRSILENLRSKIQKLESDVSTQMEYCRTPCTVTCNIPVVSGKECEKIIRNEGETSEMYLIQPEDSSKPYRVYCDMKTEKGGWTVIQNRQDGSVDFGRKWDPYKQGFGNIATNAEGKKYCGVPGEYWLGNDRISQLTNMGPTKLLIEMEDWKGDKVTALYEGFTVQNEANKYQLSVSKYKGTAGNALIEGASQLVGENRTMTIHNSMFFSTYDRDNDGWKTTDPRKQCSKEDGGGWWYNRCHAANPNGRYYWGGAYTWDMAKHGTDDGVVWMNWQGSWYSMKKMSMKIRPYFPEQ
T1 sequence (P12799 25-444): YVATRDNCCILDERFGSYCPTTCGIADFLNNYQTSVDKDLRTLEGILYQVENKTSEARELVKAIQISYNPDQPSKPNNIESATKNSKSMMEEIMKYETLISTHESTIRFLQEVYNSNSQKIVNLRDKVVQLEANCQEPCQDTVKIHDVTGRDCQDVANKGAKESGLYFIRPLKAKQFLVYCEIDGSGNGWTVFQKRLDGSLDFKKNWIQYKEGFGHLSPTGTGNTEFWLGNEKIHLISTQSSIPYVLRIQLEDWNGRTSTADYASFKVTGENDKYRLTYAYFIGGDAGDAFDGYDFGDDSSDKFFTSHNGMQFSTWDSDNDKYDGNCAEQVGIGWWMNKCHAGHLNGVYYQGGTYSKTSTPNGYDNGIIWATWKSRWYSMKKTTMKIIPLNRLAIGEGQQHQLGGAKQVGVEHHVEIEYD

[2] = mixed SAM —CONRR′/—CO2H, 1 mg/mL lysozyme flowed 3 min
[3] = mixed SAM —CONRR′/—CO2H, 1 mg/mL lysozyme flowed 30 min
[4] = mixed SAM —CONRR′/—CO2H, 1 mg/mL fibrinogen flowed 3 min, relative to —CONH(CH2)10CH3/—CO2H SAM
[5] = mixed SAM —CONRR′/—CO2H, 1 mg/mL fibrinogen flowed 30 min

Chain of lysozyme (P00698 19-147): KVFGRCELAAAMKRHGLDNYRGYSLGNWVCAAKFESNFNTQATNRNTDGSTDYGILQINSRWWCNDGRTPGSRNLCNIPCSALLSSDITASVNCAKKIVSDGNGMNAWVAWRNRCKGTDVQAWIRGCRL

Compound | % Lysoff (percent decrease in adsorbed protein during 10 minute PBS wash) (lysozyme; mixed SAM —CONRR′/—CO2H) | dR/dton lysozyme (maximum initial rate of adsorption) (lysozyme; mixed SAM —CONRR′/—CO2H) | % MLlys 3 min (lysozyme; [2]) | % MLlys 30 min (lysozyme; [3]) | θco sessile ([1]; mixed SAM) | % Fiboff (percent decrease in adsorbed protein during 10 minute PBS wash) (fibrinogen; mixed SAM —CONRR′/—CO2H) | dR/dton fibrinogen (maximum initial rate of adsorption) (fibrinogen; mixed SAM —CONRR′/—CO2H) | % MLfib 3 min (fibrinogen; [4]) | % MLfib 30 min (fibrinogen; [5]) | other results
C[N+](C)(C)CCN.[Cl-] | 95 ± 7% | 140 ± 40 RU/sec | 3.5 ± 0.2% | 3.9 ± 0.7% | 31 degrees | 6.2 ± 1% | 300 ± 200 RU/sec | 17 ± 2% | 25 ± 4% | 
CN1CCNCC1 | 170 ± 20% | 60 ± 40 RU/sec | 1.1 ± 0.2% | 1.0 ± 0.4% | 49 degrees | 1.0 ± 0.2% | 50 ± 30 RU/sec | 8.2 ± 1% | 16 ± 0.2% | 
O=CN1CCNCC1 | 73 ± 15% | 160 ± 50 RU/sec | 8 ± 0.3% | 12 ± 0.3% | 38 degrees | 10 ± 2% | 200 ± 50 RU/sec | 23 ± 1% | 39 ± 1% | 
CC(=O)N1CCNCC1 | 400 ± 5% | 440 ± 80 RU/sec | 7.8 ± 1% | 6.5 ± 0.2% | 45 degrees | 12 ± 2% | 120 ± 70 RU/sec | 17 ± 1% | 38 ± 0.2% | % ML 3 min (lysozyme; footnote b (30 minutes)): 7 ±0.2%; % ML 3 min (lysozyme): 8 ±1%; dR/dt on (lysozyme): 440 ±80 RU/sec; % Lys off (lysozyme): 400 ±5%; θco sessile [1]: 45 degrees; % ML 30 min (fibrinogen): 38 ±0.2%; dR/dt on (fibrinogen): 120 ±70 RU/sec; % ML 3 min (fibrinogen): 17 ±1%; % Fib off (fibrinogen): 12 ±2%
CNCCN(C)C(C)=O | 330 ± 15% | 170 ± 30 RU/sec | 0.5 ± 0.2% | 3.8 ± 2% | 46 degrees | 15 ± 1% | 40 ± 10 RU/sec | 2.1 ± 0.3% | 12 ± 3% | 
CC(=O)CCN | 150 ± 10% | 2700 ± 400 RU/sec | 31 ± 6% | 71 ± 5% | 70 degrees | 16 ± 1% | 1400 ± 260 RU/sec | 66 ± 0.3% | 74 ± 0.3% | 
CNCCN(C)C(=O)OC | 150 ± 2% | 670 ± 50 RU/sec | 4.3 ± 0.2% | 43 ± 3% | 70 degrees | 20 ± 2% | 330 ± 70 RU/sec | 26 ± 0.2% | 58 ± 0.3% | 
COC[C@H](OC)[C@H](OC)[C@H](OC)[C@@H](CN(C)C(=O)CCCCCCCCCCS)OC [Entry 4a] |  |  |  |  |  |  |  |  |  | % ML 3 min (lysozyme; footnote b (30 minutes)): 0.5 ±0.2%; % ML 3 min (lysozyme): 0.5 ±0.0%; dR/dt on (lysozyme): 29 ±20 RU/sec; % Lys off (lysozyme): 7 ±0%; % ML 30 min (fibrinogen): 0.7 ±0.1%; dR/dt on (fibrinogen): 30 ±14 RU/sec; % ML 3 min (fibrinogen): 0.2 ±0.1%; % Fib off (fibrinogen): 66 ±5%
CN(C)C(=O)CNC(=O)CNC(=O)CN [H2N(Gly)3N(CH3)2] (H-Gly-Gly-Gly-NMe2) | 630 ± 4% | 620 ± 130 RU/sec | 2.1 ± 1.5% | 8.8 ± 0.5% |  | 21 ± 0.7% | 55 ± 40 RU/sec | 8 ± 1% | 22 ± 0.4% | 
CNCC(=O)N(C)CC(=O)N(C)CC(=O)N(C)C [H(CH3)N(Sar)3N(CH3)2] (H-[Sar]-[Sar]-[Sar]-NMe2) |  | 70 ± 30 RU/sec | 0.6 ± 0.1% | 1.1 ± 0.3% |  |  | 60 ± 10 RU/sec | 0.7 ± 0.1% | 2.0 ± 0.1% | % ML 3 min (lysozyme; footnote b (30 minutes)): 1.1%; % ML 3 min (lysozyme): 0.6%; dR/dt on (lysozyme): 70 RU/sec; % ML 30 min (fibrinogen): 2.0%; dR/dt on (fibrinogen): 60 RU/sec; % ML 3 min (fibrinogen): 0.7%
CNCC(=O)N(C)CC(=O)N(C)CC(=O)N(C)CC(=O)N(C)C [H(CH3)N(Sar)4N(CH3)2] (H-[Sar][Sar][Sar][Sar]-NMe2) | 70 ± 30% | 80 ± 40 RU/sec | 0.8 ± 0.1% | 1.5 ± 0.7% |  |  | 70 ± 20 RU/sec | 0.5 ± 0.0% | 1.7 ± 0.2% | 
CNCC(=O)N(C)CC(=O)N(C)CC(=O)N(C)CC(=O)N(C)CC(=O)N(C)C [H(CH3)N(Sar)5N(CH3)2] | 14 ± 4% | 50 ± 20 RU/sec | 0.8 ± 0.7% | 1.0 ± 0.2% |  |  | 50 ± 10 RU/sec | 0.6 ± 0.3% | 1.3 ± 0.1% | 
N#CCCNCCC#N [HN(CH2CH2CN)2] | 290 ± 8% | 2700 ± 160 RU/sec | 17 ± 1.0% | 40 ± 2.0% |  | 20 ± 0.7% | 590 ± 240 RU/sec | 43 ± 1.0% | 58 ± 1.6% | 
N#CCNCC#N [HN(CH2CN)2] | 110 ± 1% | 2200 ± 500 RU/sec | 36 ± 0.5% | 92 ± 0.3% |  | 7.9 ± 0.9% | 2200 ± 500 RU/sec | 54 ± 3.8% | 73 ± 3% | 
CNC [HN(CH3)2] |  |  |  |  |  |  |  |  |  | % Lysoff (percent decrease in adsorbed protein during 10 minute PBS wash) (lysozyme): 120 ± 1%; % MLlys 3 min (lysozyme): 43 ± 16%; % MLlys 30 min (lysozyme): 80 ± 3%; dR/dton lysozyme (maximum initial rate of adsorption) (lysozyme): 2400 ± 260 RU/sec; % Fiboff (percent decrease in adsorbed protein during 10 minute PBS wash) (fibrinogen): 24 ± 0.1%; % MLfib 3 min (fibrinogen): 26 ± 6%; % MLfib 30 min (fibrinogen): 54 ± 0.8%; dR/dton fibrinogen (maximum initial rate of adsorption) (fibrinogen): 160 ± 30 RU/sec
(CH3)2N(Sar)3-NHCO(CH2)15SH [Entry 5a] |  |  |  |  |  |  |  |  |  | % ML 3 min (lysozyme; footnote b (30 minutes)): 2.0%; % ML 3 min (lysozyme): 1.8%; dR/dt on (lysozyme): 33 RU/sec; % Lys off (lysozyme): 18%; % ML 30 min (fibrinogen): 2.0%; dR/dt on (fibrinogen): 24 RU/sec; % ML 3 min (fibrinogen): 0.7%; % Fib off (fibrinogen): 5.7%
